# How the values were obtained:
# Cytochrome P450 2C9 = Cytochrome P450 2C9 (Homo sapiens, UniProt P11712); assay: Reversible inhibition of CYP2C9 in human liver microsomes using […] as substrate incubated for 10 mins in presence of NADPH by LC-MS analysis; assay type: ADME
# [1] = Half life in rat liver microsomes in presence of NADPH; assay type: ADME, Microsome
# Cytochrome P450 2D6 = Cytochrome P450 2D6 (Homo sapiens, UniProt P10635); assay: Reversible inhibition of CYP2D6 in human liver microsomes using […] as substrate incubated for 10 mins in presence of NADPH by LC-MS analysis; assay type: ADME
# Sequence of Cytochrome P450 2D6 (P10635 whole entry): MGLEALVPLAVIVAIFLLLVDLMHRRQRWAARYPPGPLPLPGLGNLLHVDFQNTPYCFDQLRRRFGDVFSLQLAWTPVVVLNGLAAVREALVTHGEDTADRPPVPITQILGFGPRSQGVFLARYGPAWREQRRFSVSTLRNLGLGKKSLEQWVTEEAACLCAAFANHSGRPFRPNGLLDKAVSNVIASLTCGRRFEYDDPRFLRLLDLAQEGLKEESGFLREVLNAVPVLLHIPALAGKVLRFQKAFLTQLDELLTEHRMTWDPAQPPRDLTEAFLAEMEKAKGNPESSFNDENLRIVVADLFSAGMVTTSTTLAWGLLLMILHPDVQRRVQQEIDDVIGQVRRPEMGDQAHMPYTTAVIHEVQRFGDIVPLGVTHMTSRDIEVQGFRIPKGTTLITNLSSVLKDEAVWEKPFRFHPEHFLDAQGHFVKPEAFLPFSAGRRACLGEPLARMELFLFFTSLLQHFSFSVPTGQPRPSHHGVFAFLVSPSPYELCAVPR
# [2] = target: Voltage-gated inwardly rectifying potassium channel KCNH2 (Homo sapiens, UniProt Q12809); assay: Displacement of [3H]dofetilide from recombinant human ERG stably expressed in HEK293 cell membranes measured after 90 mins by microbeta liquid scintillation counting method; design: species or system Cell membrane
# Sequence of Voltage-gated inwardly rectifying potassium channel KCNH2 (Q12809 whole entry): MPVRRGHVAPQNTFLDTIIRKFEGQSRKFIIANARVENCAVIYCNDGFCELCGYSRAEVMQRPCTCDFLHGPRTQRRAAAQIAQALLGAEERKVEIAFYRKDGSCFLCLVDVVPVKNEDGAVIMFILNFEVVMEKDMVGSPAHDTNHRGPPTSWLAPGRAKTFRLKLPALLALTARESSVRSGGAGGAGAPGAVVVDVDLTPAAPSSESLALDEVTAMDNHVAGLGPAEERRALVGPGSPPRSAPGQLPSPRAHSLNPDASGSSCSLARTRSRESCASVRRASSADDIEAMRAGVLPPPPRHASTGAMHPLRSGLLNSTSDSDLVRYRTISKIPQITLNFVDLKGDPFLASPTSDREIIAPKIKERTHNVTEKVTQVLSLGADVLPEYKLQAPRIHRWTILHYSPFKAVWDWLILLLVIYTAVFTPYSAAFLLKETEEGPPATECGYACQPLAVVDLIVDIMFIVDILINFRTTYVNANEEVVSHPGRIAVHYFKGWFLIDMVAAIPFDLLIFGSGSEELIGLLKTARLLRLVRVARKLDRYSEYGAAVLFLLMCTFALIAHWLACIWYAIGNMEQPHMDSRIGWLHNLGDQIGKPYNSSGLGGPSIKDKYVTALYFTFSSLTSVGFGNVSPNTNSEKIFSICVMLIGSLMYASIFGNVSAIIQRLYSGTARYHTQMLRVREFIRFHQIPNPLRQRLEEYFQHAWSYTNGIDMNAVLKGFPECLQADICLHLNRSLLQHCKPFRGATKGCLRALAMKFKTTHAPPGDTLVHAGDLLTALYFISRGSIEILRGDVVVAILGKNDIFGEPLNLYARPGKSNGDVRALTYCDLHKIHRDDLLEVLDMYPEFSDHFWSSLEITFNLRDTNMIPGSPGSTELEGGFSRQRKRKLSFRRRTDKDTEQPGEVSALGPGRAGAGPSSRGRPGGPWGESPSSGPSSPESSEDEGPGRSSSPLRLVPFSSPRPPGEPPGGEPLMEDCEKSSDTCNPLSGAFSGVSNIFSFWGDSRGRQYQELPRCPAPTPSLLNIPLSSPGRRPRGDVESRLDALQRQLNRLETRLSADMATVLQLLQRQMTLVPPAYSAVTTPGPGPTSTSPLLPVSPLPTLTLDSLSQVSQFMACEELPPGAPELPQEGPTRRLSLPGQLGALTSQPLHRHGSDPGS
# Cytochrome P450 3A5 = Cytochrome P450 3A5 (Homo sapiens, UniProt P20815); assay: Reversible inhibition of CYP3A5 in human liver microsomes using midazolam as substrate incubated for 10 mins in presence of NADPH by LC-MS analysis; assay type: ADME
# Sequence of Cytochrome P450 3A5 (P20815 whole entry): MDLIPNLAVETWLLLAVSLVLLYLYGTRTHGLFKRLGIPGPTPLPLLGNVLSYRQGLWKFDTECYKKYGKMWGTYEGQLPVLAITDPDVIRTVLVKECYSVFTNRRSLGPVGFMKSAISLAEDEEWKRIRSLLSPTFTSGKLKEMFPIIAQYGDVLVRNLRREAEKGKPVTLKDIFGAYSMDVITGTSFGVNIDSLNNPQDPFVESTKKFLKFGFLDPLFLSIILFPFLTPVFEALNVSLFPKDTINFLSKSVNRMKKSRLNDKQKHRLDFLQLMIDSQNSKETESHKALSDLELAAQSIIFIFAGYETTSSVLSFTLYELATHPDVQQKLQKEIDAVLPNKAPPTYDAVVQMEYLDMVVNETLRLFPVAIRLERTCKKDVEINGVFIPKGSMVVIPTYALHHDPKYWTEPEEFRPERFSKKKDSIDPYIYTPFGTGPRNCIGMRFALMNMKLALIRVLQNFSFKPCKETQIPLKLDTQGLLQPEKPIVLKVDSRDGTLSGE
# [3] = Drug concentration in plasma isolated from C57/BL6 mouse at 0.625 mg/kg, po BID for 3 days measured after 2 hrs post last dose; assay type: ADME, organism-based; conditions: time 3 day
# [4] = target: T1, Leukotriene A-4 hydrolase (Homo sapiens) (UniProt P09960); conditions: PBMC, time 6.0 hrs
# T1 sequence (whole entry): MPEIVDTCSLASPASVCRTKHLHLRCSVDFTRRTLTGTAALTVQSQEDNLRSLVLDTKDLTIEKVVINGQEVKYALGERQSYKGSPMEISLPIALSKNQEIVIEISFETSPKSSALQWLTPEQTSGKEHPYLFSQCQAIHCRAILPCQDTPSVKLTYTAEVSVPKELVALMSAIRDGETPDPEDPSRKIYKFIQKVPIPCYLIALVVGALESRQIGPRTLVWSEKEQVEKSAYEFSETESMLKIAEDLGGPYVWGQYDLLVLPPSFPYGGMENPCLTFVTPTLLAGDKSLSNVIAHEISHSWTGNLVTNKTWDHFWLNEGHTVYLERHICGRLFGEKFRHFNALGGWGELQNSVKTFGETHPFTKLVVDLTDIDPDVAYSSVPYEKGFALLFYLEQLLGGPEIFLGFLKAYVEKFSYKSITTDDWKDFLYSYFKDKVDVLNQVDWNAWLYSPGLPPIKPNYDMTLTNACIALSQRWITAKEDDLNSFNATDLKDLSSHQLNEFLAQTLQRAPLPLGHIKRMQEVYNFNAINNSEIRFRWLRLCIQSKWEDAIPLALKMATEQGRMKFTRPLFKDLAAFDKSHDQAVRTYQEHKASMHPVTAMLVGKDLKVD
# [5] = Drug concentration in blood isolated from C57/BL6 mouse at 10 mg/kg, po BID for 3 days measured after 14 hrs post last dose; assay type: ADME, organism-based; conditions: time 3 day, read-out: Ct
# [6] = Drug concentration in plasma isolated from C57/BL6 mouse at 0.625 mg/kg, po BID for 3 days measured after 14 hrs post last dose; assay type: ADME, organism-based; conditions: time 3 day
# [7] = Drug concentration in plasma isolated from C57/BL6 mouse at 10 mg/kg, po BID for 3 days measured after 14 hrs post last dose; assay type: ADME, organism-based; conditions: time 3 day
# [8] = target: T2, Leukotriene A-4 hydrolase (Homo sapiens, UniProt P09960); assay: Inhibition of recombinant full length N-terminal His6-tagged LTA4H (unknown origin) expressed in Escherichia coli BL21 DE3 cells at enzyme concentration <1 nM using Arg-AMC as substrate preincubated for 15 mins followed by substrate addition and measured every 10 mins for 300 mins by fluorescence based assay
# T2 sequence (P09960 whole entry): T1 sequence (whole entry)
# [9] = Drug concentration in plasma isolated from C57/BL6 mouse at […], po BID for 3 days measured after 2 hrs post last dose; assay type: ADME, organism-based; conditions: dose 2.5 mg/kg, time 3 day
# [10] = target: T2, Leukotriene A-4 hydrolase; assay: Inhibition of LTA4H in human whole blood assessed as reduction of calcium ionophore A23187-stimulated LTB4 generation preincubated for 4 hrs followed by ionophore stimulation and measured after 15 hrs by EIA assay; assay type: tissue-based
# [11] = Drug concentration in blood isolated from C57/BL6 mouse at 10 mg/kg, po BID for 3 days measured after 2 hrs post last dose; assay type: ADME, organism-based; conditions: time 3 day, read-out: Ct
# [12] = Drug concentration in plasma isolated from C57/BL6 mouse at 10 mg/kg, po BID for 3 days measured after 2 hrs post last dose; assay type: ADME, organism-based; conditions: time 3 day
# [13] = target: T2, Leukotriene A-4 hydrolase; assay: Inhibition of LTA4H in human PBMC assessed as reduction of calcium ionophore A23187-stimulated LTB4 generation preincubated for 4 hrs followed by ionophore stimulation and measured after 2 hrs by EIA assay; assay type: tissue-based
# [14] = Drug concentration in plasma isolated from C57/BL6 mouse at […], po BID for 3 days measured after 14 hrs post last dose; assay type: ADME, organism-based; conditions: dose 2.5 mg/kg, time 3 day
# [15] = Drug concentration in blood isolated from C57/BL6 mouse at 0.625 mg/kg, po BID for 3 days measured after 2 hrs post last dose; assay type: ADME, organism-based; conditions: time 3 day, read-out: Ct
# [16] = Drug concentration in blood isolated from C57/BL6 mouse at 0.625 mg/kg, po BID for 3 days measured after 14 hrs post last dose; assay type: ADME, organism-based; conditions: time 3 day, read-out: Ct
# [17] = target: T1, Leukotriene A-4 hydrolase (Homo sapiens); conditions: Blood, time 19.0 hrs
# [18] = Drug concentration in blood isolated from C57/BL6 mouse at […], po BID for 3 days measured after 2 hrs post last dose; assay type: ADME, organism-based; conditions: dose 2.5 mg/kg, time 3 day, read-out: Ct
# [19] = Drug concentration in blood isolated from C57/BL6 mouse at […], po BID for 3 days measured after 14 hrs post last dose; assay type: ADME, organism-based; conditions: dose 2.5 mg/kg, time 3 day, read-out: Ct
# [20] = Solubility of compound in aqueous buffer at pH 6.8 by HPLC analysis; assay type: physicochemical
# [21] = target: T1, Leukotriene A-4 hydrolase (Homo sapiens); conditions: dose 250.0 µM, time 30.0 min
# [22] = target: T2, Leukotriene A-4 hydrolase; assay: Inhibition of recombinant full length N-terminal His6-tagged LTA4H (unknown origin) expressed in Escherichia coli BL21 DE3 cells at enzyme concentration 9 nM using Arg-AMC as substrate preincubated for 15 mins followed by substrate addition and measured every 10 mins for 300 mins by fluorescence based assay
# [23] = target: T1, Leukotriene A-4 hydrolase (Homo sapiens); conditions: dose 125.0 µM, time 30.0 min
# [24] = target: T1, Leukotriene A-4 hydrolase (Homo sapiens); conditions: dose 500.0 µM, time 30.0 min
# [25] = target: T1, Leukotriene A-4 hydrolase (Homo sapiens); conditions: dose 1000.0 µM, time 30.0 min
# Sequence of Cytochrome P450 2C9 (P11712 whole entry): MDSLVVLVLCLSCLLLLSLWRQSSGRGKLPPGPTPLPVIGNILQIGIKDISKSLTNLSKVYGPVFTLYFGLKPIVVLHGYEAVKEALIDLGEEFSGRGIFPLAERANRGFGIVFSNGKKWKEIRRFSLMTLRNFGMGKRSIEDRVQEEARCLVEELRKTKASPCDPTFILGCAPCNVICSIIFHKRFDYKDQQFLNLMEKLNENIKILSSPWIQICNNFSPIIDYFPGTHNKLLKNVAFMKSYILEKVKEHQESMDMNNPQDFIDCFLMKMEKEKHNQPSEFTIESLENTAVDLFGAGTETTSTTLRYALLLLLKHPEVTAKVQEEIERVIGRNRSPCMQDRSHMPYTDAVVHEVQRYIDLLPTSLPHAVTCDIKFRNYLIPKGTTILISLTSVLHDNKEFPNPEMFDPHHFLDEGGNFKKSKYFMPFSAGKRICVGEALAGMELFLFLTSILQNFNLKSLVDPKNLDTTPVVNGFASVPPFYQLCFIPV
compound,measurement,setting,value
Cc1ccc(Oc2ccc(-c3nnn(CCN)n3)cc2)cc1,IC50,Cytochrome P450 2C9,1.4 µM
same,half-life,[1],5 min
same,IC50,Cytochrome P450 2D6,14 µM
same,IC50,[2],5.8 µM
same,IC50,Cytochrome P450 3A5,> 20 µM
NCCn1nnc(-c2ccc(Oc3ccc(Cl)cc3)cc2)n1,half-life,[1],15 min
O=C(O)c1ccc(CN2C[C@@H]3C[C@H]2CN3Cc2ccc(Oc3ccc(-c4ncco4)cc3)cc2)cc1 [ACEBILUSTAT],concentration at 72 h,[3],597 nM
same,IC90,[4],181 nM
same,concentration at 72 h,[5],554 nM
same,concentration at 72 h,[6],9 nM
same,concentration at 72 h,[7],826 nM
same,IC50,[8],4.9 nM
same,concentration at 72 h,[9],3.82 µM
same,IC50,[10],142 nM
same,concentration at 72 h,[11],7.62 µM
same,concentration at 72 h,[12],14.6 µM
same,IC50,[13],24 nM
same,concentration at 72 h,[14],94 nM
same,concentration at 72 h,[15],488 nM
same,concentration at 72 h,[16],32 nM
same,IC90,[17],728 nM
same,concentration at 72 h,[18],1860 nM
same,concentration at 72 h,[19],166 nM
O=C(O)CCCn1nnc(-c2ccc(Oc3ccc(Cl)cc3)cc2)n1,IC50,Cytochrome P450 2C9,> 20 µM
same,half-life,[1],405 min
same,IC50,Cytochrome P450 2D6,> 20 µM
same,IC50,[2],> 30 µM
same,IC50,Cytochrome P450 3A5,> 20 µM
N[C@@H](Cn1nnc(-c2ccc(Oc3ccc(Cl)cc3)cc2)n1)C(=O)O,half-life,[1],> 55 min
N[C@H](CC(=O)O)Cn1nnc(-c2ccc(OCCc3ccccc3)cc2)n1,solubility,[20],23 µM
OCc1ccc(Oc2ccccc2)cc1,ΔTm,[21],0.2 °C
same,IC50,[22],4.5 µM
same,ΔTm,[23],0.08 °C
same,ΔTm,[24],0.2 °C
same,ΔTm,[25],0.3 °C
N[C@@H](CC(=O)O)Cn1nnc(-c2ccc(Oc3nc4ccccc4s3)cc2)n1,solubility,[20],35 µM
N[C@@H](CC(=O)O)Cn1nnc(-c2ccc(Oc3ccc(Cl)cc3)cc2)n1,half-life,[1],190 min
same,solubility,[20],26 µM
N[C@H](CC(=O)O)Cn1nnc(-c2ccc(Oc3ncc(Cl)cc3F)cc2)n1,solubility,[20],398 µM
CC(=O)N[C@H]1C[C@H]2CC[C@@H](C1)N2Cc1ccc(Oc2nc3ncccc3s2)cc1,IC90,[4],92 nM
same,IC50,[8],1.9 nM
same,IC50,[10],48 nM
same,IC50,[13],18 nM
same,IC90,[17],104 nM
C[C@H](CN)n1nnc(-c2ccc(Oc3ccc(Cl)cc3)cc2)n1,IC50,Cytochrome P450 2C9,2 µM
same,half-life,[1],15 min
same,IC50,Cytochrome P450 2D6,11 µM
same,IC50,[2],> 30 µM
same,IC50,Cytochrome P450 3A5,> 20 µM
N[C@H](CC(=O)O)Cn1nnc(-c2ccc(Oc3ccc(Cl)cn3)cc2)n1,solubility,[20],344 µM
O=C(O)CCn1nnc(-c2ccc(Oc3ccc(Cl)cc3)cc2)n1,IC50,Cytochrome P450 2C9,> 20 µM
same,half-life,[1],114 min
same,IC50,Cytochrome P450 2D6,> 20 µM
same,IC50,[2],> 30 µM
same,IC50,Cytochrome P450 3A5,> 20 µM
C[C@H](Cc1ccccc1)Oc1ccc(-c2nnn(C[C@@H](N)CC(=O)O)n2)cc1,solubility,[20],391 µM
C[C@@H](N)Cn1nnc(-c2ccc(Oc3ccc(Cl)cc3)cc2)n1,IC50,Cytochrome P450 2C9,> 20 µM
same,half-life,[1],33 min
same,IC50,Cytochrome P450 2D6,> 20 µM
same,IC50,[2],> 30 µM
same,IC50,Cytochrome P450 3A5,> 20 µM
COc1cnc(Oc2ccc(-c3nnn(C[C@H](N)CC(=O)O)n3)cc2)nc1,solubility,[20],> 1000 µM
O=C(O)CNCCn1nnc(-c2ccc(Oc3ccc(Cl)cc3)cc2)n1,half-life,[1],142 min
NCCCn1nnc(-c2ccc(Oc3ccc(Cl)cc3)cc2)n1,IC50,Cytochrome P450 2C9,> 20 µM
same,half-life,[1],30 min
same,IC50,Cytochrome P450 2D6,> 20 µM
same,IC50,[2],4.8 µM
same,IC50,Cytochrome P450 3A5,> 20 µM
CCCCCOc1ccc(-c2nnn(C[C@H](N)CC(=O)O)n2)cc1,solubility,[20],65 µM
N[C@@H](CC(=O)O)Cn1nnc(-c2ccc(COCc3ccccc3)cc2)n1,solubility,[20],166 µM
O=C(O)CCCN1CCC[C@H]1COc1ccc(Oc2ccc(Cl)cc2)cc1,IC90,[4],1070 nM
same,IC90,[17],5050 nM
N[C@H](CC(=O)O)Cn1nnc(-c2ccc(Oc3ccc(Cl)cc3)cc2)n1,half-life,[1],240 min
same,solubility,[20],28 µM
N[C@H](CC(=O)O)Cn1nnc(-c2ccc(Oc3nc4ccccc4s3)cc2)n1,solubility,[20],23 µM
N[C@H](CC(=O)O)Cn1nnc(-c2ccc(Oc3ccc(-c4ncco4)cc3)cc2)n1,solubility,[20],17 µM
N[C@H](CC(=O)O)Cn1nnc(-c2ccc(Oc3ccc(F)cc3)cc2)n1,solubility,[20],135 µM
CC(=O)NCCn1nnc(-c2ccc(Oc3ccc(Cl)cc3)cc2)n1,IC50,Cytochrome P450 2C9,> 20 µM
same,half-life,[1],> 55 min
same,IC50,Cytochrome P450 2D6,> 20 µM
same,IC50,[2],> 30 µM
same,IC50,Cytochrome P450 3A5,> 20 µM
